Counter-ions that a name gives are not always drawn.
Molecular target: PAI-1 (Homo sapiens, UniProt P05121)
Test: PAI-1 inhibition in the S2251 chromogenic substrate assay (PAI functional assay)
Assay type: biochemical
Details: for INHIBITION OF PAI-1 (degree of inhibition): Table 1, first part, unit assumed; for inhibition at 20 µM / inhibition at 100 µM / inhibition at 50 µM: Table 1, second part, read-out: INHIBITION OF PAI-1 (degree of inhibition)
Procedure: In this assay, a compound is incubated with PAI-1 prior to addition to the tPA assay system. Inhibition of PAI-1 results in the production of plasmin from plasminogen. […]
Compounds of formula (A) were tested in a PAI chromogenic substrate assay. […] In turn, the plasmin cleaved the chromogenic substrate S2251 (Kabi-Vitrum) producing pNA (p-nitroaniline) which was detected scectrophotometrically at 405 nm.

PAI-1, sequence (P05121 24-402): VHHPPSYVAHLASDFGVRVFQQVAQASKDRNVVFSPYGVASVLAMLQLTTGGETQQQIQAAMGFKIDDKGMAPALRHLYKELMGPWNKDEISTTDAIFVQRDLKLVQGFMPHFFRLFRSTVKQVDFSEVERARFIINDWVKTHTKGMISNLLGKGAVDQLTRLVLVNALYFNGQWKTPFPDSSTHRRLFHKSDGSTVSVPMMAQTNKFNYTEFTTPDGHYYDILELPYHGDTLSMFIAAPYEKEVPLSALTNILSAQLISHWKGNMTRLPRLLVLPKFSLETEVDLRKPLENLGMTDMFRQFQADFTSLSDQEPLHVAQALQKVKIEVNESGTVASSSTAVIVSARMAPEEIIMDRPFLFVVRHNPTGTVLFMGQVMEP

SMILES | INHIBITION OF PAI-1 (degree of inhibition) (6.25 μm) | INHIBITION OF PAI-1 (degree of inhibition) (12.5 μm) | INHIBITION OF PAI-1 (degree of inhibition) (25 μm) | INHIBITION OF PAI-1 (degree of inhibition) (50 μm) | INHIBITION OF PAI-1 (degree of inhibition) (100 μm) | inhibition at 20 µM | inhibition at 100 µM | inhibition at 50 µM
CN(C)CCCOc1ccc(/C=c2\[nH]c(=O)/c(=C/c3ccc(-n4ccnc4)cc3)[nH]c2=O)cc1 [Compound 1976] | 0% | 0% | 0% | 0% | 3% | – | – | –
CN(C)CCN(C)Cc1ccc(/C=c2\[nH]c(=O)/c(=C/c3ccccc3)[nH]c2=O)cc1 [Compound 1982, (3Z,6Z)-3-Benzylidene-6-(4-(N-methyl-N-(2-dimethylaminoethyl)aminomethylbenzylidene-2,5-piperazinedione hydrochloride] | 1% | 6% | 28% | 49% | 48% | – | – | –
CN1CCC(N(C)Cc2ccc(/C=c3\[nH]c(=O)/c(=C/c4ccccc4)[nH]c3=O)cc2)CC1 [Compound 1983] | 0% | 0% | 0% | 14% | 34% | – | – | –
CN(C)CCCOc1ccc(/C=c2\[nH]c(=O)/c(=C/c3ccc(CN(C)C)cc3)[nH]c2=O)cc1 [Compound 5023] | – | – | – | – | – | 1% | – | –
CN(C)CCCOc1ccc(/C=c2\[nH]c(=O)/c(=C/c3ccc(Cn4ccnc4)cc3)[nH]c2=O)cc1 [Compound 5026, (3Z,6Z)-3-(4-(3-Dimethylaminopropoxy)benzylidene)-6-(4-(1-imidazolyl)methylbenzylidene)-2,5-piperazinedione] | – | – | – | – | – | 10% | 34% | –
CN(C)CCCOc1ccc(/C=c2\[nH]c(=O)/c(=C/c3ccncc3)[nH]c2=O)cc1 [Compound 5027] | – | – | – | – | – | 8% | 12% | 8%
CN(C)CCCOc1ccc(/C=c2\[nH]c(=O)/c(=C/c3cccnc3)[nH]c2=O)cc1 [Compound 5028, (3Z,6Z)-6-(4-(3-Dimethylaminopropoxy)benzylidene)-3-(3-pyridylmethylene)-2,5-piperazinedione] | – | – | – | – | – | 4% | 11% | 4%
CN(C)CCCOc1ccc(/C=c2\[nH]c(=O)/c(=C/c3ccc(-n4ccnc4)cc3)[nH]c2=O)cc1 [Compound 5030, (3Z,6Z)-3-(4-(3-Dimethylaminopropoxy)benzylidene)-6-(4-(1-imidazolyl)benzylidene)-2,5-piperazinedione] | – | – | – | – | – | 6% | 20% | 7%
CN(C)CC(O)COc1ccc(/C=c2\[nH]c(=O)/c(=C/c3ccccc3)[nH]c2=O)cc1 (stereo not drawn) [Compound 5032, (3Z,6Z)-6-Benzylidene-3-(4-(3-dimethylamino-2-hydroxypropoxy)benzylidene)-2,5-piperazinedione] | – | – | – | – | – | 63% | 65% | 62%
O=c1[nH]/c(=C\c2ccc(OCC(O)CN3CCOCC3)cc2)c(=O)[nH]/c1=C\c1ccccc1 (stereo not drawn) [Compound 5040, (3Z,6Z)-6-Benzylidene-3-(4-(2-hydroxy-3-morpholinopropoxy)benzylidene)-2,5-piperazinedione] | – | – | – | – | – | 0% | 0% | 1%
CN(C)CCCOc1ccc(/C=c2\[nH]c(=O)/c(=C/c3ccco3)[nH]c2=O)cc1 [Compound 5041, (3Z,6Z)-6-(4-(3-Dimethylaminopropoxy)benzylidene)-3-furfurylidene-2,5-piperazinedione] | – | – | – | – | – | 0% | 1% | 0%
CN(C)CCCOc1ccc(/C=c2\[nH]c(=O)/c(=C/c3ccsc3)[nH]c2=O)cc1 [Compound 5042, (3Z,6Z)-6-(4-(3-Dimethylaminopropoxy)benzylidene)-3-(3-Thenylidene)-2,5-piperazinedione] | – | – | – | – | – | 42% | 77% | 64%
O=c1[nH]/c(=C\c2ccc(OCC(O)CN3CCN(CCO)CC3)cc2)c(=O)[nH]/c1=C\c1ccccc1 (stereo not drawn) [Compound 5043, (3Z,6Z)-6-Benzylidene-3-(4-(2-hydroxy-3-(4-(2-hydroxyethyl)-1-piperazinyl)propoxy)benzylidene)-2,5-piperazinedione] | – | – | – | – | – | 1% | 21% | 15%
CC(=O)Nc1ccc(/C=c2\[nH]c(=O)/c(=C/c3ccc(OCCCN(C)C)cc3)[nH]c2=O)cc1 [Compound 5048] | – | – | – | – | – | 11% | 55% | 19%
CN(C)CCCOc1ccc(/C=c2\[nH]c(=O)/c(=C/c3ccoc3)[nH]c2=O)cc1 [Compound 5052, (3Z,6Z)-6-(4-(3-Dimethylaminopropoxy)benzylidene)-3-(3-Furylmethylene)-2,5-piperazinedione] | – | – | – | – | – | 86% | 77% | 76%
O=c1[nH]/c(=C\c2ccc(OCCN3CCCC3)cc2)c(=O)[nH]/c1=C\c1ccccc1 [Compound 5053, (3Z,6Z)-6-Benzylidene-3-(4-(2-(1-pyrrolidinyl)ethoxy)benzylidene)2,5-piperazinedione] | – | – | – | – | – | 56% | 68% | 64%
O=c1[nH]/c(=C\c2ccc(OCCN3CCOCC3)cc2)c(=O)[nH]/c1=C\c1ccccc1 [Compound 5054, (3Z,6Z)-6-Benzylidene-3-(4-(2-morpholinoethoxy)benzylidene)-2,5-piperazinedione] | – | – | – | – | – | 48% | 5% | 57%
O=c1[nH]/c(=C\c2ccc(OCCn3ccnc3)cc2)c(=O)[nH]/c1=C\c1ccccc1 [Compound 5055, (3Z,6Z)-6-Benzylidene-3-(4-(2-(1-imidazolyl)ethoxy)benzylidene)2,5-piperazinedione] | – | – | – | – | – | 70% | 69% | 69%
O=c1[nH]/c(=C\c2ccc(OCC(O)Cn3ccnc3)cc2)c(=O)[nH]/c1=C\c1ccccc1 (stereo not drawn) [Compound 5057, (3Z,6Z)-6-Benzylidene-3-(4-(2-hydroxy-3-(1-imidazolyl)propoxy)benzylidene)-2,5-piperazinedione] | – | – | – | – | – | 37% | 44% | 29%
CN(C)CC(=O)NCc1ccc(/C=c2\[nH]c(=O)/c(=C/c3ccccc3)[nH]c2=O)cc1 [Compound 5061, (3Z,6Z)-6-Benzylidene-3-(4-dimethylaminoacetamidomethylbenzylidene)-2,5-piperazinedione] | – | – | – | – | – | 60% | 43% | 48%
CN(C)CCOc1ccc(/C=c2\[nH]c(=O)/c(=C/c3ccoc3)[nH]c2=O)cc1 [Compound 5062, (3Z,6Z)-6-(4-(2-Dimethylaminoethoxy)benzylidene)-3-(3-furylmethylene)-2,5-piperazinedione] | – | – | – | – | – | 87% | 78% | 81%
CN(C)CCOCc1ccc(/C=c2\[nH]c(=O)/c(=C/c3ccsc3)[nH]c2=O)cc1 [Compound 5069, (3Z,6Z)-6-(4-(2-Dimethylaminoethoxymethyl)benzylidene)-3-(3-thenylidene)-2,5-piperazinedione] | – | – | – | – | – | 75% | 70% | 71%
